# From patent publication US9895335B2, “Ophthalmic compositions containing a nitric oxide donor” (NICOX SCIENCE IRELAND, priority 2013, dated 2018)
# Test system: hypertonic saline-induced IOP increase in rabbits
# Test: Intraocular pressure (IOP) lowering activity in hypertonic saline-induced IOP increase in rabbits
# Type: in vivo, New Zealand White rabbits
# Parameters: unit not given here
# Conditions: topical, versus vehicle and versus basal IOP before hypertonic saline injection
# Protocol: Intraocular Pressure (IOP) Lowering Activity in Hypertonic Saline-Induced IOP Increase in Rabbits
# The Intraocular pressure (TOP) lowering activity of compound (Ia) (Example 1) was assessed in an animal model of elevated IOP.
# Adults male New Zealand White rabbits weighting 1.8-2.0 Kg were used in the experiments.
# IOP was measured using a Tono-Pen XL prior to hypertonic saline injection (basal) and at 30, 60, 120 and 240 min thereafter. Vehicle (5% cremophor-EL; 0.3% DMSO; 0.2 mg/ml bac in PBS pH 6.0,) or compound (Ia) dissolved in the vehicle at different concentrations (0.1%, 0.3% and 1%) was instilled as eye drops immediately after hypertonic saline injection. Eyes were randomly assigned to different treatment groups. Vehicle or compound (Ia) was directly instilled into the conjunctiva pocket at the desired doses. One drop of 0.4% oxybuprocaine hydrochloride (Novesine, Sandoz) was instilled in each eye immediately before each set of pressure measurements.
# Results are reported in Table in which the ocular hypotensive activity of compound (Ia) at different is expressed as IOP change (at 60 and 120 minutes following topical administration) versus vehicle and versus IOP at basal before hypertonic saline injection.
structure (smiles),measurement,setting,value
"CCCC(=O)OCCCCO[N+](=O)[O-] [Compound (Ia), 4-Nitrooxybutan-1-Ol Butyrate]",IOP change,"0.1% eye drops, 60 min after administration",−10.3 ± 0.3
same,IOP change,"0.1% eye drops, 120 min after administration",−5 ± 1.8
same,IOP change,"0.3% eye drops, 60 min after administration",−16.5 ± 3.8
same,IOP change,"0.3% eye drops, 120 min after administration",−9 ± 2.1
same,IOP change,"1% eye drops, 60 min after administration",−21.1 ± 4.5
same,IOP change,"1% eye drops, 120 min after administration",−15.1 ± 2.3
